The values that follow come from BindingDB's records for patent WO2022091056 (NOVARTIS AG, 2022).

The target in this assay is Interleukin-17 receptor A/ (Homo sapiens, UniProt Q16552). In words: Human IL-17A x IL-17RA TR-FRET assay. Here is the method: The final total assay volume is 10 µL. […] The neutral control (NC) contains all the assay components, but DMSO instead of test compound. […] The fluorescence values for emission at 615 nm and 665 nm are loaded to the evaluation software Helios.
Interleukin-17 receptor A/, sequence (Q16552 whole entry): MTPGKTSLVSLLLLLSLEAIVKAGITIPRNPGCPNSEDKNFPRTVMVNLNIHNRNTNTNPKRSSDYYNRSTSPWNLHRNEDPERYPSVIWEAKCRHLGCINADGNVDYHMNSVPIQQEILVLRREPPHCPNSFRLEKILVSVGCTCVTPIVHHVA
Interleukin-17 receptor A/, sequence (Q96F46 whole entry, further chain): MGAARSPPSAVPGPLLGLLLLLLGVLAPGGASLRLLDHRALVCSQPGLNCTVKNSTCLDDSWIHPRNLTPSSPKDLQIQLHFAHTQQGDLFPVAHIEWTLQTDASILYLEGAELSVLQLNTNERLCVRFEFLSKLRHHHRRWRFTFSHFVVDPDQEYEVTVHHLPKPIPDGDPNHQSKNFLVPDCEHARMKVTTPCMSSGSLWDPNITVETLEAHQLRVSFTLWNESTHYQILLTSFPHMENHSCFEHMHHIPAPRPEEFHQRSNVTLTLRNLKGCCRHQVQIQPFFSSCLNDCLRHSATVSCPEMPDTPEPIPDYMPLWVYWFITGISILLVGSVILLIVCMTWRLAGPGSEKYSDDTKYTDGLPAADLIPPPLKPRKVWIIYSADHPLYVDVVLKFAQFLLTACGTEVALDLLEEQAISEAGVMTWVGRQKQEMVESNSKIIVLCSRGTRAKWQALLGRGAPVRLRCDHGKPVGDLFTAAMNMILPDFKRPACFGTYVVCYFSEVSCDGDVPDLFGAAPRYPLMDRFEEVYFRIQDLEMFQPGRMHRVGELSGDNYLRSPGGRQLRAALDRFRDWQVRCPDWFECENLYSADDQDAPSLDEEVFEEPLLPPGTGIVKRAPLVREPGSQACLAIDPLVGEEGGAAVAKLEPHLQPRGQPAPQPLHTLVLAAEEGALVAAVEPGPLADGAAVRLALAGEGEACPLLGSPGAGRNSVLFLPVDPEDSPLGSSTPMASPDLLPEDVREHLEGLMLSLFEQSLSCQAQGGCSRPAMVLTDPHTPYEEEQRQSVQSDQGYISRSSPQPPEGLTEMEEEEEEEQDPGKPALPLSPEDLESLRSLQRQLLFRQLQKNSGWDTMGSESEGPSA
One may read the IC50 as the point on the concentration scale where inhibition reaches its midpoint. Low values mean higher potency, high ones lower potency. For the compound `Cc1cc[n+]([O-])c(C)c1-c1ccc(NC(=O)[C@@H](NC(=O)c2conc2CN)C2CCCCC2)cc1` [WO2022091056, Example 79], the IC50 stood at 918 nM. In other words, the sub-micromolar range.

Compound `Cc1c(-c2ccc(NC(=O)[C@@H](NC(=O)c3ccnn3C)C3CCCCC3)cc2F)ccc[n+]1[O-]` [WO2022091056, Example 83] registered an IC50 of 1980 nM.

Regarding `Cc1c[n+]([O-])cc(C)c1-c1ccc(NC(=O)[C@@H](NC(=O)c2ccnn2C)C2CCCCC2)cc1` [WO2022091056, Example 97], the IC50 stood at 1730 nM.

`Cc1c(-c2ccc(NC(=O)[C@@H](NC(=O)c3ccnn3C)[C@H]3CCCC(F)(F)C3)cc2F)c(Cl)cc[n+]1[O-]` [WO2022091056, Example 110] registered an IC50 of 23 nM.

For `Cc1nccc(Cl)c1-c1ccc(NC(=O)[C@@H](NC(=O)c2ccnn2C)C2CCCCC2)cc1F` [WO2022091056, Example 137], the IC50 turned out to be 3790 nM.
